Laboratory results reported in PubChem BioAssay (NCI).
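Protocol summary: plate cells (96-well), add compound at 5 concentrations, incubate 48 h, interpolate endpoints linearly. GI50: concentration for 50% inhibition of growth. At the TGI there is no net growth.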

Columns and labels:
Experiment in all cases: NCI tumour cell line growth inhibition, 48 h
[1] = system: U251 CNS
[2] = system: SF-539 CNS
[3] = system: NCI-H522 lung
[4] = system: RXF 393 renal
[5] = system: A498 renal
[6] = system: SW-620 colon
[7] = system: PC-3 prostate
[8] = system: HOP-62 NSCLC
[9] = system: OVCAR-4 ovarian
[10] = system: SK-OV-3 ovarian
[11] = system: DU-145 prostate
[12] = system: SK-MEL-5 melanoma
[13] = system: HOP-92 NSCLC
[14] = system: OVCAR-8 ovarian
[15] = system: MOLT-4 leukemia
[16] = system: TK-10 renal
[17] = system: MDA-MB-435
[18] = system: HCC-2998 colon
[19] = system: ACHN renal
[20] = system: SF-268 CNS
[21] = system: RPMI-8226 leukemia
[22] = system: K-562 leukemia
[23] = system: CCRF-CEM leukemia
[24] = system: NCI/ADR-RES ovarian
[25] = system: NCI-H226 lung
[26] = system: HCT-15 colon
[27] = system: MDA-MB-231 breast
[28] = system: UO-31 renal
[29] = system: HS 578T breast
[30] = system: OVCAR-3 ovarian
[31] = system: SNB-75 CNS
[32] = system: HCT-116 colon
[33] = system: SK-MEL-2 melanoma
[34] = system: COLO 205 colon
[35] = system: SR leukemia
[36] = system: BT-549 breast
[37] = system: SK-MEL-28 melanoma
[38] = system: SF-295 CNS
[39] = system: KM12 colon
[40] = system: UACC-62 melanoma
[41] = system: IGROV1 ovarian
[42] = system: M14 melanoma
[43] = system: MALME-3M melanoma
[44] = system: MCF7 breast
[45] = system: NCI-H460 lung
[46] = system: HL-60(TB) leukemia
[47] = system: 786-0 renal
[48] = system: EKVX NSCLC
[49] = system: T-47D breast
[50] = system: SNB-19 CNS
[51] = system: SN12C renal
[52] = system: OVCAR-5 ovarian
[53] = system: NCI-H23 lung
[54] = system: A549 NSCLC
[55] = system: LOX IMVI melanoma
[56] = system: HT29 colon
[57] = system: UACC-257 melanoma
[58] = system: CAKI-1 renal

In the case of `O=C1/C(=C/c2cccc(F)c2)CN(C(=O)C(Cl)Cl)C/C1=C\c1cccc(F)c1`, the GI50 [1] is reported as 116 nM, the TGI [1] is reported as 294 nM and the GI50 [2] is reported as 265 nM. It also gave a TGI [2] of 824 nM, a GI50 [3] of 202 nM and a TGI [3] of 522 nM. It also gave a GI50 [4] of 194 nM, a TGI [4] of 397 nM and a GI50 [5] of 628 nM. For the same compound, the TGI [5] was 2050 nM, the GI50 [6] was 32.5 nM and the TGI [6] was 125 nM. The GI50 [7] was 186 nM, the TGI [7] was 539 nM and the GI50 [8] was 353 nM. It also gave a TGI [8] of 1190 nM, a GI50 [9] of 351 nM and a TGI [9] of 1380 nM. For the same compound, the GI50 [10] was 600 nM, the TGI [10] was 1790 nM and the GI50 [11] was 392 nM. For the same compound, the TGI [11] was 1360 nM, the GI50 [12] was 200 nM and the TGI [12] was 431 nM. For the same compound, the GI50 [13] was 499 nM, the TGI [13] was 1440 nM and the GI50 [14] was 184 nM. The TGI [14] was 1130 nM, the GI50 [15] was 90.5 nM and the TGI [15] was 3600 nM. The GI50 [16] was 433 nM, the TGI [16] was 1450 nM and the GI50 [17] was 210 nM. It also gave a TGI [17] of 491 nM, a GI50 [18] of 272 nM and a TGI [18] of 737 nM. The GI50 [19] was 212 nM, the TGI [19] was 517 nM and the GI50 [20] was 427 nM. For the same compound, the TGI [20] was 1750 nM, the GI50 [21] was 31.8 nM and the TGI [21] was 169 nM. It also gave a GI50 [22] of 33.2 nM, a GI50 [23] of 34.5 nM and a TGI [23] of 17700 nM. It also gave a GI50 [24] of 304 nM, a TGI [24] of 1490 nM and a GI50 [25] of 259 nM. The TGI [25] was 685 nM, the GI50 [26] was 85.5 nM and the TGI [26] was 312 nM. For the same compound, the GI50 [27] was 248 nM, the TGI [27] was 671 nM and the GI50 [28] was 176 nM. The TGI [28] was 387 nM, the GI50 [29] was 303 nM and the TGI [29] was 1250 nM. It also gave a GI50 [30] of 190 nM, a TGI [30] of 410 nM and a GI50 [31] of 392 nM. It also gave a TGI [31] of 1730 nM, a GI50 [32] of 63.4 nM and a TGI [32] of 239 nM. It also gave a GI50 [33] of 343 nM, a TGI [33] of 1270 nM and a GI50 [34] of 332 nM. For the same compound, the TGI [34] was 1160 nM, the GI50 [35] was 29.6 nM and the TGI [35] was 465 nM. For the same compound, the GI50 [36] was 252 nM, the TGI [36] was 787 nM and the GI50 [37] was 243 nM. The TGI [37] was 601 nM, the GI50 [38] was 217 nM and the TGI [38] was 629 nM. For the same compound, the GI50 [39] was 172 nM, the TGI [39] was 476 nM and the GI50 [40] was 191 nM. It also gave a TGI [40] of 430 nM, a GI50 [41] of 209 nM and a TGI [41] of 531 nM. It also gave a GI50 [42] of 258 nM, a TGI [42] of 872 nM and a GI50 [43] of 218 nM. It also gave a TGI [43] of 621 nM, a GI50 [44] of 40.5 nM and a TGI [44] of 241 nM. It also gave a GI50 [45] of 318 nM, a TGI [45] of 1090 nM and a GI50 [46] of 218 nM. For the same compound, the TGI [46] was 773 nM, the GI50 [47] was 217 nM and the TGI [47] was 536 nM. The GI50 [48] was 263 nM, the TGI [48] was 804 nM and the GI50 [49] was 317 nM. It also gave a TGI [49] of 1760 nM, a GI50 [50] of 204 nM and a TGI [50] of 604 nM. It also gave a GI50 [51] of 189 nM, a TGI [51] of 475 nM and a GI50 [52] of 290 nM. The TGI [52] was 887 nM, the GI50 [53] was 234 nM and the TGI [53] was 690 nM. The GI50 [54] was 655 nM, the TGI [54] was 2140 nM and the GI50 [55] was 38.5 nM. It also gave a TGI [55] of 109 nM, a GI50 [56] of 113 nM and a TGI [56] of 764 nM. It also gave a GI50 [57] of 606 nM, a TGI [57] of 1630 nM and a GI50 [58] of 389 nM. The TGI [58] was 1440 nM.
